Measured values from ChEMBL document CHEMBL3045538, “Amino acid chemistry in crop protection” (2010).
Values after ≈ are worked out from the molar mass of the structure shown.

What was measured:
Type in all cases: functional
Plasmopara viticola = experiment: Fungicidal activity against Plasmopara viticola
Phytophthora infestans = experiment: Fungicidal activity against Phytophthora infestans
Digitaria sanguinalis = experiment: Post-emergence herbicidal activity against Digitaria sanguinalis (hairy crabgrass)
Echinochloa crus-galli = experiment: Post-emergence herbicidal activity against Echinochloa crus-galli (barnyard grass)
Setaria viridis = experiment: Post-emergence herbicidal activity against Setaria viridis (green foxtail)
Ipomoea purpurea = experiment: Post-emergence herbicidal activity against Ipomoea purpurea (common morning-glory)
Abutilon theophrasti = experiment: Post-emergence herbicidal activity against Abutilon theophrasti (velvetleaf)

SMILES	EC80 (Plasmopara viticola) [µg/mL]	EC80 (Phytophthora infestans) [µg/mL]	ED85 (Digitaria sanguinalis) [g/ha]	ED85 (Echinochloa crus-galli) [g/ha]	ED85 (Setaria viridis) [g/ha]	ED85 (Ipomoea purpurea) [g/ha]	ED85 (Abutilon theophrasti) [g/ha]
CCC#CCOc1ccc(CCNC(=O)CNS(C)(=O)=O)cc1OC	> 200	148 (≈ 402 µM)					
CCC#CCOc1ccc(CCNC(=O)[C@H](CCC(=O)O)NS(C)(=O)=O)cc1OC	> 200	> 200					
CCC#CCOc1ccc(CCNC(=O)[C@H](C)NS(C)(=O)=O)cc1OC	> 200	> 200					
CCC#CCOc1ccc(CCNC(=O)[C@@H](NS(C)(=O)=O)[C@@H](C)O)cc1OC	109 (≈ 264 µM)	148 (≈ 359 µM)					
CCC#CCOc1ccc(CCNC(=O)[C@H](CC(C)C)NS(C)(=O)=O)cc1OC	18 (≈ 42.4 µM)	12 (≈ 28.3 µM)					
CCC#CCOc1ccc(CCNC(=O)[C@H](CCC)NS(C)(=O)=O)cc1OC	20 (≈ 48.7 µM)	60 (≈ 146 µM)					
CCC#CCOc1ccc(CCNC(=O)[C@H](CCSC)NS(C)(=O)=O)cc1OC	> 200	> 200					
CCC#CCOc1ccc(CCNC(=O)[C@@H](NS(C)(=O)=O)[C@@H](C)CC)cc1OC	2 (≈ 4.71 µM)	3 (≈ 7.07 µM)					
Fc1cc(C(F)(F)F)cc(Cl)c1Oc1ccc2nn[nH]c2c1			250	>500	>500	<32	250
CCC#CCOc1ccc(CCNC(=O)C(NS(C)(=O)=O)C(CC)CC)cc1OC (racemic)	16 (≈ 36.5 µM)	16 (≈ 36.5 µM)					
C=CCC(NS(C)(=O)=O)C(=O)NCCc1ccc(OCC#CCC)c(OC)c1 (racemic)	49 (≈ 120 µM)	9 (≈ 22 µM)					
CC(C(N)=O)n1nnc2ccc(Oc3c(F)cc(C(F)(F)F)cc3Cl)cc21 (centres undefined)			63	125	63	<32	<32
COC(=O)CCn1nnc2ccc(Oc3c(F)cc(C(F)(F)F)cc3Cl)cc21			<32	125	250	<32	<32
CC(C(=O)O)n1nnc2ccc(Oc3c(F)cc(C(F)(F)F)cc3Cl)cc21 (centres undefined)			8	4	1	<0.5	1
CCC#CCOc1ccc(CCNC(=O)[C@@H](NS(C)(=O)=O)C(C)C)cc1OC	2 (≈ 4.87 µM)	8 (≈ 19.5 µM)					
COC(=O)Cn1nnc2ccc(Oc3c(F)cc(C(F)(F)F)cc3Cl)cc21			>8	4	2	0.5	>8
C#CCn1nnc2ccc(Oc3c(F)cc(C(F)(F)F)cc3Cl)cc21			500	250	63	<32	250
CCn1nnc2ccc(Oc3c(F)cc(C(F)(F)F)cc3Cl)cc21			>500	>500	>500	<32	<32
CCC#CCOc1ccc(CCNC(=O)C(NS(C)(=O)=O)c2ccc(Cl)cc2)cc1OC (racemic)	15 (≈ 31.3 µM)	20 (≈ 41.8 µM)					
COC(=O)[C@H](C)n1nnc2ccc(Oc3c(F)cc(C(F)(F)F)cc3Cl)cc21			125	63	125	<32	<32
